Biological target: P. falciparum apicoplast DNA polymerase (Pf-apPOL) (Plasmodium falciparum, UniProt Q8ILY1)
Assay: Fluorescence-based high-throughput DNA polymerase assay (molecular beacon), primary screen and dose-response;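 for % inhibition ApPOL 90': test concentration in µM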;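 for % inhibition apPOL 180': test concentration in µM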
Type: biochemical
Procedure, shortened: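 Single-point screening used 10 µM compound with 20 nM polymerase, 20 nM hairpin substrate and 6 µM dNTPs for 90 min at 25 °C. Confirmatory titrations (2.5–80 µM) followed fluorescence at three times, and IC50 was derived from a fit including a cooperativity term n.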

[1] = primary screen value of the 186 hits; unit not given; 90 min, 10 µM

P. falciparum apicoplast DNA polymerase (Pf-apPOL), sequence (Q8ILY1 entry or part of it): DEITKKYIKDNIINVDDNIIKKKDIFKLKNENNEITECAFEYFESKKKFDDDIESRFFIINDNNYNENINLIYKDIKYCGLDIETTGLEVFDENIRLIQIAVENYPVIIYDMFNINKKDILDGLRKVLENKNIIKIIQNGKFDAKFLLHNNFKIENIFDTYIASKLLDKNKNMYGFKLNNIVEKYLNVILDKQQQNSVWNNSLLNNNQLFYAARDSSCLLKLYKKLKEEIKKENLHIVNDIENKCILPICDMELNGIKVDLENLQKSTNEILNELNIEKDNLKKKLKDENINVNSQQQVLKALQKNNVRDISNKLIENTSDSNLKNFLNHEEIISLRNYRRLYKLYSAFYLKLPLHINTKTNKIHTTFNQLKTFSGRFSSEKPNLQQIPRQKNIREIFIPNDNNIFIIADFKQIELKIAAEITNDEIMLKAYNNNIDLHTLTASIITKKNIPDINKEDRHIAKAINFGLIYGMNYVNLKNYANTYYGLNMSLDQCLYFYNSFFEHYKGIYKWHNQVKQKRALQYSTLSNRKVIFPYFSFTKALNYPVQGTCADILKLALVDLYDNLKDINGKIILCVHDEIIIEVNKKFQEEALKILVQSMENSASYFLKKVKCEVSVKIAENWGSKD

Structure (SMILES): Cc1ccc(CCNC(=O)c2cnn3c(O)c(Cc4ccccc4F)c(C)nc23)cc1 [KU0097142]
- % inhibition Apo pol 10' (DRC-1; 10'; concentration 2.5): -13.7377%
- % inhibition Apo pol 10' (DRC-1; 10'; concentration 5): -17.1874%
- % inhibition Apo pol 10' (DRC-1; 10'; concentration 10): -18.6102%
- % inhibition Apo pol 10' (DRC-1; 10'; concentration 20): 32.4745%
- % inhibition Apo pol 10' (DRC-1; 10'; concentration 40): 80.8586%
- % inhibition Apo pol 10' (DRC-1; 10'; concentration 80): 88.0629%
- % inhibition Apol 90' (DRC-1; 90'; concentration 2.5): -9.394%
- % inhibition Apol 90' (DRC-1; 90'; concentration 5): -5.811%
- % inhibition Apol 90' (DRC-1; 90'; concentration 10): -11.7224%
- % inhibition Apol 90' (DRC-1; 90'; concentration 20): 36.3215%
- % inhibition Apol 90' (DRC-1; 90'; concentration 40): 78.277%
- % inhibition Apol 90' (DRC-1; 90'; concentration 80): 85.9002%
- % inhibition apPOL 180' (DRC-1; 180'; concentration 2.5): -10.2215%
- % inhibition apPOL 180' (DRC-1; 180'; concentration 5): -8.372%
- % inhibition apPOL 180' (DRC-1; 180'; concentration 10): -12.5375%
- % inhibition apPOL 180' (DRC-1; 180'; concentration 20): 23.0268%
- % inhibition apPOL 180' (DRC-1; 180'; concentration 40): 70.309%
- % inhibition apPOL 180' (DRC-1; 180'; concentration 80): 81.7781%
- % inhibition Apol 40' (DRC-2, 40', concentration 5 (unit not given)): 17%
- % inhibition Apol 40' (DRC-2, 40', concentration 40 (unit not given)): 67%
- % inhibition ApPOL 90' (DRC-2, 90', concentration 5 (unit not given)): 17%
- % inhibition ApPOL 90' (DRC-2, 90', concentration 40 (unit not given)): 67%
- % inhibition apPOL 180' (DRC-2, 180', concentration 40 (unit not given)): 62%
- % inhibition Apo pol 5' (DRC-2; 5'; concentration 2.5): -3.79%
- % inhibition Apo pol 5' (DRC-2; 5'; concentration 5): 11%
- % inhibition Apo pol 5' (DRC-2; 5'; concentration 10): 15%
- % inhibition Apo pol 5' (DRC-2; 5'; concentration 20): 45%
- % inhibition Apo pol 5' (DRC-2; 5'; concentration 40): 57%
- % inhibition Apo pol 5' (DRC-2; 5'; concentration 80): 62%
- % inhibition Apo pol 5' (DRC-2; 5'; concentration 80 (unit not given)): 62%
- % inhibition Apol 40' (DRC-2; 40'; concentration 2.5): -0.896%
- % inhibition Apol 40' (DRC-2; 40'; concentration 5): 17%
- % inhibition Apol 40' (DRC-2; 40'; concentration 10): 21%
- % inhibition Apol 40' (DRC-2; 40'; concentration 20): 54%
- % inhibition Apol 40' (DRC-2; 40'; concentration 40): 67%
- % inhibition Apol 40' (DRC-2; 40'; concentration 80): 71%
- % inhibition ApPOL 90' (DRC-2; 90'; concentration 2.5): -1.26%
- % inhibition ApPOL 90' (DRC-2; 90'; concentration 5): 17%
- % inhibition ApPOL 90' (DRC-2; 90'; concentration 10): 19%
- % inhibition ApPOL 90' (DRC-2; 90'; concentration 20): 52%
- % inhibition ApPOL 90' (DRC-2; 90'; concentration 40): 67%
- % inhibition ApPOL 90' (DRC-2; 90'; concentration 80): 72%
- % inhibition apPOL 180' (DRC-2; 180'; concentration 2.5): -2.35%
- % inhibition apPOL 180' (DRC-2; 180'; concentration 5): 12%
- % inhibition apPOL 180' (DRC-2; 180'; concentration 10): 13%
- % inhibition apPOL 180' (DRC-2; 180'; concentration 20): 43%
- % inhibition apPOL 180' (DRC-2; 180'; concentration 40): 62%
- % inhibition apPOL 180' (DRC-2; 180'; concentration 80): 69%
- DNA Pol [1]: 48
- DNA Pol (primary screen value, head "DNA Pol", unit not given; 90 min, 10 µM): 48

Structure (SMILES): Cc1ncc(CSc2nc(C(C)(C)C)cs2)c(CO)c1O [KU0264007]
- DNA Pol (186 hits, value of the hit list (primary screen); unit not given; 90 min, 10 µM): 70
- % inhibition Apo pol 10' (DRC-1; 10'; concentration 2.5): 0.8986%
- % inhibition Apo pol 10' (DRC-1; 10'; concentration 5): 5.699%
- % inhibition Apo pol 10' (DRC-1; 10'; concentration 10): 22.1813%
- % inhibition Apo pol 10' (DRC-1; 10'; concentration 20): 37.8368%
- % inhibition Apo pol 10' (DRC-1; 10'; concentration 40): 57.9296%
- % inhibition Apo pol 10' (DRC-1; 10'; concentration 80): 69.8809%
- % inhibition Apol 90' (DRC-1; 90'; concentration 2.5): -0.5136%
- % inhibition Apol 90' (DRC-1; 90'; concentration 5): -0.3111%
- % inhibition Apol 90' (DRC-1; 90'; concentration 10): 8.991%
- % inhibition Apol 90' (DRC-1; 90'; concentration 20): 19.9803%
- % inhibition Apol 90' (DRC-1; 90'; concentration 40): 38.5024%
- % inhibition Apol 90' (DRC-1; 90'; concentration 80): 54.4417%
- % inhibition apPOL 180' (DRC-1; 180'; concentration 2.5): -1.351%
- % inhibition apPOL 180' (DRC-1; 180'; concentration 5): -5.176%
- % inhibition apPOL 180' (DRC-1; 180'; concentration 10): 0.78%
- % inhibition apPOL 180' (DRC-1; 180'; concentration 20): 8.562%
- % inhibition apPOL 180' (DRC-1; 180'; concentration 40): 22.9628%
- % inhibition apPOL 180' (DRC-1; 180'; concentration 80): 39.37%
- % inhibition Apo pol 5' (DRC-2, 5', concentration 2.5): 6.56%
- % inhibition Apo pol 5' (DRC-2, 5', concentration 5): 10%
- % inhibition Apo pol 5' (DRC-2, 5', concentration 10): 24%
- % inhibition Apo pol 5' (DRC-2, 5', concentration 20): 37%
- % inhibition Apo pol 5' (DRC-2, 5', concentration 40): 45%
- % inhibition Apo pol 5' (DRC-2, 5', concentration 80): 50%
- % inhibition Apol 40' (DRC-2, 40', concentration 2.5): 4%
- % inhibition Apol 40' (DRC-2, 40', concentration 5): 6.47%
- % inhibition Apol 40' (DRC-2, 40', concentration 10): 20%
- % inhibition Apol 40' (DRC-2, 40', concentration 20): 35%
- % inhibition Apol 40' (DRC-2, 40', concentration 40): 47%
- % inhibition Apol 40' (DRC-2, 40', concentration 80): 61%
- % inhibition ApPOL 90' (DRC-2, 90', concentration 2.5): 1.8%
- % inhibition ApPOL 90' (DRC-2, 90', concentration 5): 2.55%
- % inhibition ApPOL 90' (DRC-2, 90', concentration 10): 14%
- % inhibition ApPOL 90' (DRC-2, 90', concentration 20): 28%
- % inhibition ApPOL 90' (DRC-2, 90', concentration 40): 43%
- % inhibition ApPOL 90' (DRC-2, 90', concentration 80): 62%
- % inhibition apPOL 180' (DRC-2, 180', concentration 2.5): -3%
- % inhibition apPOL 180' (DRC-2, 180', concentration 5): -4.6%
- % inhibition apPOL 180' (DRC-2, 180', concentration 10): 2.58%
- % inhibition apPOL 180' (DRC-2, 180', concentration 20): 14%
- % inhibition apPOL 180' (DRC-2, 180', concentration 40): 30%
- % inhibition apPOL 180' (DRC-2, 180', concentration 80): 58%
- % inhibition ApPOL 90' (DRC-2; 90'; concentration 10): 14%
- % inhibition apPOL 180' (DRC-2; 180'; concentration 20): 14%
- DNA Pol (primary screen value, 'DNA Pol' only; 90 min, 10 µM): 70

Structure (SMILES): O=C(Cc1cccs1)N1CCN(c2nc(CN3CCOCC3)cs2)CC1 [Molecule 35, O=C(N1CCN(CC1)c1scc(n1)CN1CCOCC1)Cc1cccs1]
- % inhibition Apo pol 10' (DRC-1; concentration 2.5; 10'): -2.34%
- % inhibition Apol 90' (DRC-1; concentration 2.5; 90'): -6%
- % inhibition apPOL 180' (DRC-1; concentration 2.5; 180'): -10%
- % inhibition Apo pol 10' (DRC-1; concentration 5; 10'): 14%
- % inhibition Apol 90' (DRC-1; concentration 5; 90'): 6.43%
- % inhibition apPOL 180' (DRC-1; concentration 5; 180'): -2.23%
- % inhibition Apo pol 10' (DRC-1; concentration 10; 10'): 46%
- % inhibition Apol 90' (DRC-1; concentration 10; 90'): 34%
- % inhibition apPOL 180' (DRC-1; concentration 10; 180'): 19%
- % inhibition Apo pol 10' (DRC-1; concentration 20; 10'): 76%
- % inhibition Apol 90' (DRC-1; concentration 20; 90'): 68%
- % inhibition apPOL 180' (DRC-1; concentration 20; 180'): 53%
- % inhibition Apo pol 10' (DRC-1; concentration 40; 10'): 83%
- % inhibition Apol 90' (DRC-1; concentration 40; 90'): 83%
- % inhibition apPOL 180' (DRC-1; concentration 40; 180'): 81%
- % inhibition Apo pol 10' (DRC-1; concentration 80 (unit not given); 10'): 83%
- % inhibition Apol 90' (DRC-1; concentration 80; 90'): 86%
- % inhibition apPOL 180' (DRC-1; concentration 80; 180'): 88%
- % inhibition Apo pol 5' (DRC-2; 5'; concentration 2.5): 8%
- % inhibition Apo pol 5' (DRC-2; 5'; concentration 5): 19%
- % inhibition Apo pol 5' (DRC-2; 5'; concentration 10): 35%
- % inhibition Apo pol 5' (DRC-2; 5'; concentration 40): 46%
- % inhibition Apo pol 5' (DRC-2; 5'; concentration 80): 35%
- % inhibition ApPOL 90' (DRC-2; 90'; concentration 2.5): 8%
- % inhibition ApPOL 90' (DRC-2; 90'; concentration 40): 69%
- % inhibition apPOL 180' (DRC-2; 180'; concentration 40): 69%
- % inhibition Apo pol 5' (DRC-2; concentration 2.5; 5'): 8%
- % inhibition Apol 40' (DRC-2; concentration 2.5; 40'): 9%
- % inhibition ApPOL 90' (DRC-2; concentration 2.5; 90'): 8%
- % inhibition apPOL 180' (DRC-2; concentration 2.5; 180'): 1.49%
- % inhibition Apo pol 5' (DRC-2; concentration 5; 5'): 19%
- % inhibition Apol 40' (DRC-2; concentration 5; 40'): 22%
- % inhibition ApPOL 90' (DRC-2; concentration 5; 90'): 20%
- % inhibition apPOL 180' (DRC-2; concentration 5; 180'): 13%
- % inhibition Apo pol 5' (DRC-2; concentration 10; 5'): 35%
- % inhibition Apol 40' (DRC-2; concentration 10; 40'): 43%
- % inhibition ApPOL 90' (DRC-2; concentration 10; 90'): 41%
- % inhibition apPOL 180' (DRC-2; concentration 10; 180'): 31%
- % inhibition Apo pol 5' (DRC-2; concentration 20; 5'): 45%
- % inhibition Apol 40' (DRC-2; concentration 20; 40'): 61%
- % inhibition ApPOL 90' (DRC-2; concentration 20; 90'): 62%
- % inhibition apPOL 180' (DRC-2; concentration 20; 180'): 56%
- % inhibition Apo pol 5' (DRC-2; concentration 40; 5'): 46%
- % inhibition Apol 40' (DRC-2; concentration 40; 40'): 64%
- % inhibition ApPOL 90' (DRC-2; concentration 40; 90'): 69%
- % inhibition apPOL 180' (DRC-2; concentration 40; 180'): 69%
- % inhibition Apo pol 5' (DRC-2; concentration 80; 5'): 35%
- % inhibition Apol 40' (DRC-2; concentration 80; 40'): 59%
- % inhibition ApPOL 90' (DRC-2; concentration 80; 90'): 65%
- % inhibition apPOL 180' (DRC-2; concentration 80; 180'): 70%
- % inhibition Apo pol 10' (first dose-response set; 10'; concentration 10): 46%
- % inhibition Apo pol 10' (first dose-response set; 10'; concentration 40): 83%
- % inhibition Apo pol 10' (first dose-response set; 10'; concentration 80 (unit not given)): 83%
- % inhibition Apol 90' (first dose-response set; 90'; concentration 40): 83%
- % inhibition apPOL 180' (first dose-response set; 180'; concentration 10): 19%
- DNA Pol [1]: 37
- DNA Pol (primary screen value; head prints only 'DNA Pol'; 90 min, 10 µM): 37
